Experimental data reported in ChEMBL document CHEMBL1201862, “PubChem BioAssay data set” (2004).
Active and inactive are the calls of the source.

How the values were obtained:
[1] = molecular target: T1, 1-phosphatidylinositol 4,5-bisphosphate phosphodiesterase beta-3 (Homo sapiens, UniProt Q01970); experiment: Fluorescence-based biochemical high throughput dose response assay to identify inhibitors of phospholipase C isozymes (PLC-B3).
T1 sequence (Q01970 whole entry): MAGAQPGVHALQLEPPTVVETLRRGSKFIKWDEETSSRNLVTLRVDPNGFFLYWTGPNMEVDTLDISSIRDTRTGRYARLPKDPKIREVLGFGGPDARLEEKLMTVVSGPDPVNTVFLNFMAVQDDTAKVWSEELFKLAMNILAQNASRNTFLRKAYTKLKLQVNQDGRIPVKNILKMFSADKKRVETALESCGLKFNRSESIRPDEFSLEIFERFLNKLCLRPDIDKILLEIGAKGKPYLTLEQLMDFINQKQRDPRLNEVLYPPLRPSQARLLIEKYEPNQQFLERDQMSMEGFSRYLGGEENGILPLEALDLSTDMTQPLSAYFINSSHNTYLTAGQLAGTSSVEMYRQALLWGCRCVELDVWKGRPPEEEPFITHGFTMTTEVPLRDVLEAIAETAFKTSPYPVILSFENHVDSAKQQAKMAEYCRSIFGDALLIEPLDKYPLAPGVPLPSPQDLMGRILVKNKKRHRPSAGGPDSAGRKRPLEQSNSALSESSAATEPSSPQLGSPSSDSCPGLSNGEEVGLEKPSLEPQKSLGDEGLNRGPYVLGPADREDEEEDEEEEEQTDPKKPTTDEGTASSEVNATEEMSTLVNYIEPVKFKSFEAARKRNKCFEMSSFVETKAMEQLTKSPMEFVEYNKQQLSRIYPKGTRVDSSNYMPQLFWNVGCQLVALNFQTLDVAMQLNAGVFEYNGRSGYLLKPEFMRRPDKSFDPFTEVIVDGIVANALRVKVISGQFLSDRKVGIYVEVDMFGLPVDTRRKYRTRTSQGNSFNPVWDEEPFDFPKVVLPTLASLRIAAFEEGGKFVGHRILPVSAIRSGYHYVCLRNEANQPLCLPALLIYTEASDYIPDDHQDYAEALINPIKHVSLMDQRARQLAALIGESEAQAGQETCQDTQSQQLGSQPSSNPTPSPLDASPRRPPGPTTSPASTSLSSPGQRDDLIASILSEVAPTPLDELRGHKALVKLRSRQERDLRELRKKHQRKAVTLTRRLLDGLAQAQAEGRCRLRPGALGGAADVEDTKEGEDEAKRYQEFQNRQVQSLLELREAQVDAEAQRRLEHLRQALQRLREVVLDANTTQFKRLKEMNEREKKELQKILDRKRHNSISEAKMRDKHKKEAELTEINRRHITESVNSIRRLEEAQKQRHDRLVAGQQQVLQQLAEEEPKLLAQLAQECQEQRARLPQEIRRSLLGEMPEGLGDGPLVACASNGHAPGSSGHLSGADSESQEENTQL

[2] = molecular target: Tyrosyl-DNA phosphodiesterase 2 (Homo sapiens, UniProt O95551); experiment: human TDP2 enzyme inhibitors, dose response, biochemical, epi absorbance, IC50 (AID 743297)
Caspase-6 = molecular target: T2, Caspase-6 (Homo sapiens, UniProt P55212); experiment: human caspase-6 inhibitors, dose response, biochemical, VEID-R110 fluorescence, cherry-pick (AID 720632)
T2 sequence (P55212 whole entry): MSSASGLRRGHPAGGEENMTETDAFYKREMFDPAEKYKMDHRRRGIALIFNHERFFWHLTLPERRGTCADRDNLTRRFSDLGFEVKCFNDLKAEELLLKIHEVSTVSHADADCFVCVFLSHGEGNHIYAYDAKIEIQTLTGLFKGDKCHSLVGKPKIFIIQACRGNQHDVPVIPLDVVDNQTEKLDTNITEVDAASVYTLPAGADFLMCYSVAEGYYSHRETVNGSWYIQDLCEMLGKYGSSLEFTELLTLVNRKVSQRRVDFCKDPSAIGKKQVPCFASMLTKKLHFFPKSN

Caspase-9 = Caspase-9 (Homo sapiens, UniProt P55211); experiment: caspase-9 enzyme inhibition, dose response, selectivity assay for caspase-6 inhibitor project, biochemical, fluorescence, plate reader, cherry-picked samples (AID 743293)
Caspase-7 = Caspase-7 (Homo sapiens, UniProt P55210); experiment: human caspase-7 inhibitors, dose response, selectivity assay for caspase-6 inhibitor project, biochemical, DEVD-R110 fluorescence, cherry-pick (AID 743295)
[3] = growth suppression of PTEN-null colon cells, dose response, cell-based, HCT116 PTEN knockout (AID 1047); type: functional;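 further: HCT116 colon tumor cells with PTEN knocked out; cells exposed to compound for 60 hours before readout; potency for loss of cell viability measured by luminescence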
[4] = Vero E6 cell cytotoxicity, dose response, cytotoxicity control for non-replicating M. tuberculosis project, secondary assay (AID 492998); type: functional, VeroE6; settings: Vero C1008
[5] = molecular target: Mitochondrial peptide methionine sulfoxide reductase (Bos taurus, UniProt P54149); experiment: Absorbance-based biochemical high throughput dose response assay for activators of Methionine sulfoxide reductase A (MsrA).; type: functional
Phospholipase A2 = Phospholipase A2 (Homo sapiens, UniProt P04054); type: functional;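 further: confirmatory dose-response counterscreen on phospholipase A2, testing hits that came from an ultra-high-throughput screen for ATG4B inhibitors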
[6] = molecular target: Sphingosine 1-phosphate receptor 2 (Homo sapiens, UniProt O95136); experiment: Dose Response Cell Based Assay for Antagonists of the S1P2 Receptor. [Related pubchem assays: 856, 736 ]; type: functional
Sequence of Sphingosine 1-phosphate receptor 2 (O95136 whole entry): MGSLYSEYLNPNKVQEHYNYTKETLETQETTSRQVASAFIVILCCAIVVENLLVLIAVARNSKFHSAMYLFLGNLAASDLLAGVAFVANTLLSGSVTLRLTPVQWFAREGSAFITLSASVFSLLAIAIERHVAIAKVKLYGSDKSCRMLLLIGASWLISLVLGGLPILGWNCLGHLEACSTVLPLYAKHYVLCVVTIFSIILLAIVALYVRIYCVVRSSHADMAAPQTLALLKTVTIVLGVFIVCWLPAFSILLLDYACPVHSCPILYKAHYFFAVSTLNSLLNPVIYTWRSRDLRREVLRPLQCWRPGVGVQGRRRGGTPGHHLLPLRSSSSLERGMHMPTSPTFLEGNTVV

Sequence of Phospholipase A2 (P04054 whole entry): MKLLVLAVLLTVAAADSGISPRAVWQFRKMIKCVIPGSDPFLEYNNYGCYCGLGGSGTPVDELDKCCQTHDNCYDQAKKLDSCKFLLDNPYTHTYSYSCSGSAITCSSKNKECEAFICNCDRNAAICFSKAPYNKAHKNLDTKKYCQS
Sequence of Tyrosyl-DNA phosphodiesterase 2 (O95551 whole entry): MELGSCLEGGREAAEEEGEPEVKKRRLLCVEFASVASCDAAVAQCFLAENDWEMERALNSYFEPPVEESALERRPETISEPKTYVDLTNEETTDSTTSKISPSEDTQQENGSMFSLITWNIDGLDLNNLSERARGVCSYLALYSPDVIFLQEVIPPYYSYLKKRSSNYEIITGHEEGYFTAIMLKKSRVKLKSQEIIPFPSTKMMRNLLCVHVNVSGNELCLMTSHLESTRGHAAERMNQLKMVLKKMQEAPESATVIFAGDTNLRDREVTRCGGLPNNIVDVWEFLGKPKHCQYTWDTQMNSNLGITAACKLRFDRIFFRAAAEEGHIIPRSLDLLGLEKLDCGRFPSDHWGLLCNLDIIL
Sequence of Caspase-7 (P55210 24-198 limits assumed): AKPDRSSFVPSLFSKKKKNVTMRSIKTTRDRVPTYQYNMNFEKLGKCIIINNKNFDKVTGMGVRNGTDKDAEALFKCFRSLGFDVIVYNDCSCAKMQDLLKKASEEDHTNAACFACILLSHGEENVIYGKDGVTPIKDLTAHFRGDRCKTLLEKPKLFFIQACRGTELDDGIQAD
Sequence of Caspase-7 (P55210 207-303 limits assumed): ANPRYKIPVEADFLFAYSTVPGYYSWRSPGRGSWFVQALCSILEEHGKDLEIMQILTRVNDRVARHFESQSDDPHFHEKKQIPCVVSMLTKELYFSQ
Sequence of Caspase-9 (P55211 1-315 limits assumed): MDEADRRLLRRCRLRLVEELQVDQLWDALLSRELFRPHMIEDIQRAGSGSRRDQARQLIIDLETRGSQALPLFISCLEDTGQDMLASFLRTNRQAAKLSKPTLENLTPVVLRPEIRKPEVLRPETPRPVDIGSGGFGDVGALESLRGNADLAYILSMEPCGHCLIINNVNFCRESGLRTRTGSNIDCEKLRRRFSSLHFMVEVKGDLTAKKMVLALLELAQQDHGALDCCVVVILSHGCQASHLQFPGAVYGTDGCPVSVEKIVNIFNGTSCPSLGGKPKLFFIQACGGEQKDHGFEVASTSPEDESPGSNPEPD
Sequence of Caspase-9 (P55211 331-416 limits assumed): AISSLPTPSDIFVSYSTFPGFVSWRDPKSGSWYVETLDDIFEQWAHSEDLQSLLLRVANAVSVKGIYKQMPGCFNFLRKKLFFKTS
Sequence of Mitochondrial peptide methionine sulfoxide reductase (P54149 whole entry): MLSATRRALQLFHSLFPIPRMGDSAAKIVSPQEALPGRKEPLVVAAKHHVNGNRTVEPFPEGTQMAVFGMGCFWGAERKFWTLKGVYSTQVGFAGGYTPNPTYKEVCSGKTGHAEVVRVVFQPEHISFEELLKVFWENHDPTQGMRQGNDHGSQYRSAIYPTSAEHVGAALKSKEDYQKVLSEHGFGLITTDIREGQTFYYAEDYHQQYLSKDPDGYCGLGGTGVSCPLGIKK

In the case of `O=C(CCN1C(=O)/C(=C\c2ccco2)SC1=S)Nc1ccc(C(=O)O)c(O)c1`, the IC50 [1] is reported as > 122 µM (inactive).

With `Oc1nc(Nc2ccccc2Cl)cc2ccccc12` the IC50 [2] was 28.4 µM (inactive), the AC50 (Caspase-6) was 3.75 µM (active) and the AC50 (Caspase-9) was 28.8 µM (active). For the same compound, the AC50 (Caspase-7) was 12.2 µM (active).

For `Cc1nc2c(=O)n(C)c(=O)nc-2n(C)n1`, the EC50 [3] was 821 nM (active), the CC50 [4] was 4.51 µM (active) and the EC50 [5] was 63.7 µM (inactive). The IC50 (Phospholipase A2) was > 80 µM (inactive) and the IC50 [6] was 1.4 µM (active).
